Values joined by “and” are separate entries in the source; they are usually repeats but may differ in a detail not shown here. Identical values can stand only once.
Columns and labels:
4T1 breast tumors = assay: In vivo photodynamic therapy, 4T1 breast tumor model; design: species or system mouse; settings: n = 6; for TGI: BALB/c mice with 4T1 tumors
Experimental: and 14 d post-intravenous injection by a small-animal in vivo fluorescence imaging system (CRi Maestro EX, USA) with excitation at 450 nm and emission at 560 nm.
The mean fluorescence intensity (MFI) was quantitated by CRi Maestro EX 3.0.
Ex vivo fluorescent imaging
After BALB/c mice developed established tumors (100 mm3), Ppa and SSAs (5 mg Ppa kg-1) were intravenously injected into mice via their tail veins (n = 3). The mice were sacrificed at different time points (1 d, 3 d, 5 d, 7 d, 10 d and 14 d) after post-injection, and tumors were excised for ex vivo imaging and semi-quantitative distribution analysis by an in vivo imaging system (IVIS Spectrum In Vivo Imaging System, USA). These tumors were excised for preparing frozen sections. The fixed tumor samples were sectioned into 5 μm-thick slides and incubated with Alex Fluor 594 labeled anti-CD31 antibody (Abcam, UK) and DAPI (Dojindo, Japan). A confocal microscope was used to observe accumulation and retention of Ppa in the […]
1.3.15 In vivo photodynamic therapy
In the 4T1 breast tumor model, when the tumor volume reached about 50 mm3, the mice were divided into 5 groups (n = 6) and injected intravenously with saline, Ppa-1(one treatment), Ppa-2 (two treatments), SSAs-1 (one treatment) and SSAs-2 (two treatments) every four days. The dose per injection was 5 mg Ppa kg-1. After 3 d post-injection, mice were anesthetized with 2% (v/v) isofluorane and tumors were irradiated for 8 min (660 nm, 200 mW cm-2); The mice were monitored daily to identify any signs of toxicity, while the tumor volumetric size and the body weight were measured every 2 d. Tumor volumes were calculated using the following formula: tumor volume = length × width2 × 0.5. […]
For studies with an A549 human non-small cell lung tumor model, nude mice were randomly allocated into three groups (n= 5): saline (control), Ppa, and SSAs when the average tumor volume reached 50 mm3. […] The tumor growth was monitored and the tumor size was measured every 3 d. […]
Untreated cells were set as a control. […] Relative abundance of transcripts was calculated with kallisto. […]

4T1 cells = assay: In vitro cellular uptake (flow cytometry, CLSM); type: cell-based, mouse; settings: 1 µg Ppa mL-1, 2, 6 and 24 h
Experimental: CCK-8 assay. 5×103 L02 normal cells per well were seeded in a 96-well plate, and then treated by Ppa and SSAs for 24 h incubation or PDP for 24 h and 48 h incubation.
Cell viability of each group was obtained through the same process.
1.3.9 In vitro cellular uptake
To determine cellular uptake and intracellular distribution of SSAs, 4T1 cells (2×104) were seeded on each glass coverslip to allow attachment, and incubated with Ppa and PDPP for 1 h, 3 h and 6 h, while Ppa was used as a control. After nuclear staining by Hoechst 33258, cells were washed by PBS and then observed under a confocal laser scanning microscopy (CLSM) (excitation and emission wavelengths:
630 nm and 678 nm), and images were captured by Leica Confocal Software.
For quantitative characterization of uptake of SSAs by cells, 4T1 cells were seeded in 6 well plates at 1×10^5 cells per well and incubated for 2 h, 6 h and 24 h. After the spent medium was replaced with fresh one, cells were treated by Ppa and SSAs at an equivalent concentration of 1 μg Ppa mL-1 for pre-specified times. Cells were then washed with PBS twice, harvested, and suspended in 100 μL of PBS for flow cytometer analyses. 20,000 events were collected and Flowjo software was used for generating each histogram.
For TEM, 4T1 cells cultured in 6 cm dishes were incubated with Ppa and SSAs. […]

In vivo pharmacokinetics = assay: In vivo pharmacokinetics; design: species or system mouse; settings: healthy BALB/c mice, single i.v. 5 mg Ppa kg-1, plasma fluorescence, two-compartment model, mean ± s.d., n = 7
Experimental: 1.3.13 In vivo pharmacokinetics
Healthy pathogen-free BALB/c mice (5-6 weeks, female) were used to determine the pharmacokinetics of SSAs (n = 7). The mice were intravenously injected with Ppa and SSAs (5 mg Ppa kg-1), respectively. Blood (20 μL) was collected at diﬀerent time […]
Plasma was diluted to 50-fold with DMSO for fluorescent measurements using a BioTek plate reader. The pharmacokinetic parameters were calculated using a two-compartment model by WinNonlin 5.2 software. […]

C=Cc1c(C)c2cc3nc(c4c5[nH]c(cc6nc(cc1[nH]2)C(C)=C6CC)c(C)c5C(=O)C4)[C@@H](CCC(=O)O)[C@@H]3C [Ppa, pyropheophorbide a]
TGI (4T1 breast tumors; one treatment (group -1), i.v. 5 mg Ppa kg-1, 660 nm 200 mW cm-2 8 min 3 d post-injection): 11.6%
TGI (4T1 breast tumors; two treatments (group -2), i.v. 5 mg Ppa kg-1 per injection, 660 nm 200 mW cm-2 8 min 3 d post-injection): 17.1%
Antitumor effect on tumor growth (4T1 breast tumors; once and twice treatments, 4T1 model): no significant antitumor inhibitory effect
Cellular uptake (4T1 cells): better uptake efficiency compared with SSAs
AUC (area under the drug concentration) (In vivo pharmacokinetics): 2600 ± 110 ng·h/mL
MRT (mean residence time) (In vivo pharmacokinetics): 3.64 ± 1.02 h
t1/2 (half-life of the drug) (In vivo pharmacokinetics): 4.29 ± 0.47 h and 4.29 h

From article PMC8596125, “Self‐Stabilized Supramolecular Assemblies Constructed from PEGylated Dendritic Peptide Conjugate for Augmenting Tumor Retention and Therapy” (Advanced Science, 2021)
